According to patent US9499550B2 (BRISTOL-MYERS SQUIBB COMPANY, priority 2012, dated 2016):

Legend:
[1] = system: HCV genotype 1a (H77 strain) replicon in HUH-7 cells; test: HCV replicon luciferase reporter assay, genotype 1a; type: cell-based; settings: Hepatitis C virus, Huh-7, 72 h, HCV genotype 1a replicon luciferase assay, 3 days incubation, range class, read-out: LE_1a (EC50, range)
How it was run: (§1)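 Replicon inhibition for both genotypes was measured as Renilla luciferase signal (EnduRen, 7.5 μM final, 2 h) after 3-day, 37° C exposure of replicon-bearing HUH-7 cells in 4% FCS DMEM, 0.5% DMSO. The 1b construct carries S1179I; the 1a H77 construct carries P1496L and S2204I. Twenty-point, 3-fold dilutions were fitted four-parametrically for EC50, and CC50 was taken from multiplexed Cell Titer-Blue.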

[2] = system: HCV genotype 1b (Con1) replicon in HUH-7 cells; test: HCV replicon luciferase reporter assay, genotype 1b; type: cell-based; settings: Hepatitis C virus, Huh-7, 72 h, HCV genotype 1b replicon luciferase assay, 3 days incubation, range class, read-out: LE_1b (EC50, range)
How it was run: as §1

Row | Compound | EC50 [1] [nM] | EC50 [2] [nM]
1 | COc1ccc2c(O[C@@H]3C[C@H]4C(=O)N[C@]5(C(=O)NS(=O)(=O)C6CC6)C[C@H]5/C=C\CC[C@H](C)C[C@@H](C)[C@H](NC(=O)OC(C)(C)C)C(=O)N4C3)nc(-c3ccc(F)cc3)cc2c1 [Compound 3041, tert-butyl ((2R,6S,7R,9S,13aS,14aR,16aS,Z)-14a-((cyclopropylsulfonyl)carbamoyl)-2-((3-(4-fluorophenyl)-6-methoxyisoquinolin-1-yl)oxy)-7,9-dimethyl-5,16-dioxo-1,2,3,5,6,7,8,9,10,11,13a,14,14a,15,16,16a-hexadecahydrocyclopropa[e]pyrrolo[1,2-a][1,4]diazacyclopentadecin-6-yl)carbamate] | < 5.46 | < 5.46
2 | COc1ccc2c(O[C@@H]3C[C@H]4C(=O)N[C@]5(C(=O)NS(=O)(=O)C6CC6)C[C@H]5/C=C\CC[C@@H](C)C[C@@H](C)[C@H](NC(=O)OC(C)(C)C)C(=O)N4C3)nc(-c3ccc(F)cc3)cc2c1 [Compound 3042, tert-butyl ((2R,6S,7R,9R,13aS,14aR,16aS,Z)-14a-((cyclopropylsulfonyl)carbamoyl)-2-((3-(4-fluorophenyl)-6-methoxyisoquinolin-1-yl)oxy)-7,9-dimethyl-5,16-dioxo-1,2,3,5,6,7,8,9,10,11,13a,14,14a,15,16,16a-hexadecahydrocyclopropa[e]pyrrolo[1,2-a][1,4]diazacyclopentadecin-6-yl)carbamate] | < 5.46 | < 5.46
3 | COc1ccc2c(O[C@@H]3C[C@H]4C(=O)N[C@]5(C(=O)NS(=O)(=O)C6CC6)C[C@H]5/C=C\CC[C@H](C)C[C@@H](C)[C@H](NC(=O)OC(C)(C)C(F)(F)F)C(=O)N4C3)nc(-c3ccc(F)cc3)cc2c1 [Compound 3043, 1,1,1-trifluoro-2-methylpropan-2-yl((2R,6S,7R,9S,13aS,14aR,16aS,Z)-14a-((cyclopropylsulfonyl)carbamoyl)-2-((3-(4-fluorophenyl)-6-methoxyisoquinolin-1-yl)oxy)-7,9-dimethyl-5,16-dioxo-1,2,3,5,6,7,8,9,10,11,13a,14,14a,15,16,16a-hexadecahydrocyclopropa[e]pyrrolo[1,2-a][1,4]diazacyclopentadecin-6-yl)carbamate] | < 5.46 | < 5.46
4 | COc1ccc2c(O[C@@H]3C[C@H]4C(=O)N[C@]5(C(=O)NS(=O)(=O)C6CC6)C[C@H]5/C=C\CC[C@@H](C)C[C@@H](C)[C@H](NC(=O)OC(C)(C)C(F)(F)F)C(=O)N4C3)nc(-c3ccc(F)cc3)cc2c1 [Compound 3044, 1,1,1-trifluoro-2-methylpropan-2-yl((2R,6S,7R,9R,13aS,14aR,16aS,Z)-14a-((cyclopropylsulfonyl)carbamoyl)-2-((3-(4-fluorophenyl)-6-methoxyisoquinolin-1-yl)oxy)-7,9-dimethyl-5,16-dioxo-1,2,3,5,6,7,8,9,10,11,13a,14,14a,15,16,16a-hexadecahydrocyclopropa[e]pyrrolo[1,2-a][1,4]diazacyclopentadecin-6-yl)carbamate] | < 5.46 | < 5.46
5 | COc1ccc2c(O[C@@H]3C[C@H]4C(=O)N[C@]5(C(=O)NS(=O)(=O)C6CC6)C[C@H]5/C=C\CC[C@H](C)C[C@@H](C)[C@H](NC(=O)O[C@@H]5C[C@@H]6C[C@@H]6C5)C(=O)N4C3)nc(-c3ccc(F)cc3)cc2c1 [Compound 3045, (1R,3r,5S)-bicyclo[3.1.0]hexan-3-yl((2R,6S,7R,9S,13aS,14aR,16aS,Z)-14a-((cyclopropylsulfonyl)carbamoyl)-2-((3-(4-fluorophenyl)-6-methoxyisoquinolin-1-yl)oxy)-7,9-dimethyl-5,16-dioxo-1,2,3,5,6,7,8,9,10,11,13a,14,14a,15,16,16a-hexadecahydrocyclopropa[e]pyrrolo[1,2-a][1,4]diazacyclopentadecin-6-yl)carbamate] | < 5.46 | < 5.46
6 | COc1ccc2c(O[C@@H]3C[C@H]4C(=O)N[C@]5(C(=O)NS(=O)(=O)C6CC6)C[C@H]5/C=C\CC[C@@H](C)C[C@@H](C)[C@H](NC(=O)O[C@@H]5C[C@@H]6C[C@@H]6C5)C(=O)N4C3)nc(-c3ccc(F)cc3)cc2c1 [Compound 3046, (1R,3r,5S)-bicyclo[3.1.0]hexan-3-yl((2R,6S,7R,9R,13aS,14aR,16aS,Z)-14a-((cyclopropylsulfonyl)carbamoyl)-2-((3-(4-fluorophenyl)-6-methoxyisoquinolin-1-yl)oxy)-7,9-dimethyl-5,16-dioxo-1,2,3,5,6,7,8,9,10,11,13a,14,14a,15,16,16a-hexadecahydrocyclopropa[e]pyrrolo[1,2-a][1,4]diazacyclopentadecin-6-yl)carbamate] | < 5.46 | < 5.46
7 | COc1ccc2c(O[C@@H]3C[C@H]4C(=O)N[C@]5(C(=O)NS(=O)(=O)C6CC6)C[C@H]5/C=C\CC[C@H](C)C[C@@H](C)[C@H](NC(=O)OC(C)(C)C)C(=O)N4C3)nc(-c3ccc(OC)c(Cl)c3)cc2c1 [Compound 3047, tert-butyl ((2R,6S,7R,9S,13aS,14aR,16aS,Z)-2-((3-(3-chloro-4-methoxyphenyl)-6-methoxyisoquinolin-1-yl)oxy)-14a-((cyclopropylsulfonyl)carbamoyl)-7,9-dimethyl-5,16-dioxo-1,2,3,5,6,7,8,9,10,11,13a,14,14a,15,16,16a-hexadecahydrocyclopropa[e]pyrrolo[1,2-a][1,4]diazacyclopentadecin-6-yl)carbamate] | 4.82 to 103 | < 5.46
8 | COc1ccc2c(O[C@@H]3C[C@H]4C(=O)N[C@]5(C(=O)NS(=O)(=O)C6CC6)C[C@H]5/C=C\CC[C@@H](C)C[C@@H](C)[C@H](NC(=O)OC(C)(C)C)C(=O)N4C3)nc(-c3ccc(OC)c(Cl)c3)cc2c1 [Compound 3048, tert-butyl ((2R,6S,7R,9R,13aS,14aR,16aS,Z)-2-((3-(3-chloro-4-methoxyphenyl)-6-methoxyisoquinolin-1-yl)oxy)-14a-((cyclopropylsulfonyl)carbamoyl)-7,9-dimethyl-5,16-dioxo-1,2,3,5,6,7,8,9,10,11,13a,14,14a,15,16,16a-hexadecahydrocyclopropa[e]pyrrolo[1,2-a][1,4]diazacyclopentadecin-6-yl)carbamate] | < 5.46 | < 5.46
9 | COc1ccc2c(O[C@@H]3C[C@H]4C(=O)N[C@]5(C(=O)NS(=O)(=O)C6CC6)C[C@H]5/C=C\CC[C@H](C)C[C@@H](C)[C@H](NC(=O)OC(C)(C)C)C(=O)N4C3)nc(-c3ccc(OC)c(F)c3)cc2c1 [Compound 3049, tert-butyl ((2R,6S,7R,9S,13aS,14aR,16aS,Z)-14a-((cyclopropylsulfonyl)carbamoyl)-2-((3-(3-fluoro-4-methoxyphenyl)-6-methoxyisoquinolin-1-yl)oxy)-7,9-dimethyl-5,16-dioxo-1,2,3,5,6,7,8,9,10,11,13a,14,14a,15,16,16a-hexadecahydrocyclopropa[e]pyrrolo[1,2-a][1,4]diazacyclopentadecin-6-yl)carbamate] | < 5.46 | < 5.46
10 | COc1ccc2c(O[C@@H]3C[C@H]4C(=O)N[C@]5(C(=O)NS(=O)(=O)C6CC6)C[C@H]5/C=C\CC[C@@H](C)C[C@@H](C)[C@H](NC(=O)OC(C)(C)C)C(=O)N4C3)nc(-c3ccc(OC)c(F)c3)cc2c1 [Compound 3050, tert-butyl ((2R,6S,7R,9R,13aS,14aR,16aS,Z)-14a-((cyclopropylsulfonyl)carbamoyl)-2-((3-(3-fluoro-4-methoxyphenyl)-6-methoxyisoquinolin-1-yl)oxy)-7,9-dimethyl-5,16-dioxo-1,2,3,5,6,7,8,9,10,11,13a,14,14a,15,16,16a-hexadecahydrocyclopropa[e]pyrrolo[1,2-a][1,4]diazacyclopentadecin-6-yl)carbamate] | < 5.46 | < 5.46
11 | COc1ccc2c(O[C@@H]3C[C@H]4C(=O)N[C@]5(C(=O)NS(=O)(=O)C6CC6)C[C@H]5/C=C\CC[C@H](C)C[C@@H](C)[C@H](NC(=O)OC(C)(C)C(F)(F)F)C(=O)N4C3)nc(-c3ccc(OC)c(Cl)c3)cc2c1 [Compound 3051, 1,1,1-trifluoro-2-methylpropan-2-yl((2R,6S,7R,9S,13aS,14aR,16aS,Z)-2-((3-(3-chloro-4-methoxyphenyl)-6-methoxyisoquinolin-1-yl)oxy)-14a-((cyclopropylsulfonyl)carbamoyl)-7,9-dimethyl-5,16-dioxo-1,2,3,5,6,7,8,9,10,11,13a,14,14a,15,16,16a-hexadecahydrocyclopropa[e]pyrrolo[1,2-a][1,4]diazacyclopentadecin-6-yl)carbamate] | 4.82 to 103 | < 5.46
12 | COc1ccc2c(O[C@@H]3C[C@H]4C(=O)N[C@]5(C(=O)NS(=O)(=O)C6CC6)C[C@H]5/C=C\CC[C@@H](C)C[C@@H](C)[C@H](NC(=O)OC(C)(C)C(F)(F)F)C(=O)N4C3)nc(-c3ccc(OC)c(Cl)c3)cc2c1 [Compound 3052, 1,1,1-trifluoro-2-methylpropan-2-yl((2R,6S,7R,9R,13aS,14aR,16aS,Z)-2-((3-(3-chloro-4-methoxyphenyl)-6-methoxyisoquinolin-1-yl)oxy)-14a-((cyclopropylsulfonyl)carbamoyl)-7,9-dimethyl-5,16-dioxo-1,2,3,5,6,7,8,9,10,11,13a,14,14a,15,16,16a-hexadecahydrocyclopropa[e]pyrrolo[1,2-a][1,4]diazacyclopentadecin-6-yl)carbamate] | < 5.46 | < 5.46
